Where “and” joins values, the source holds several entries; their conditions need not be identical. Identical values can stand only once. Inconclusive results and toxic doses are left out. Cut-off read from the data, not from the text of the source: active = T/C of 150% or more; inactive = T/C below 125%.
Test system: L1210 leukemia ip in BDF1 mice, survival T/C
Experiment: NCI In Vivo Anticancer Drug Screen. Data for tumor model L1210 Leukemia (intraperitoneal) in B6D2F1 (BDF1) mice
Conditions: higher = longer survival
How it was run: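 Transplantable tumor model; survival measured in treated vs vehicle control mice. Value = treated/control.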

[1] = endpoint: mean survival time, dose: 6.25 mg/kg/injection, schedule: Q01DX009 (ip), vehicle: saline
[2] = endpoint: mean survival time, dose: 6.25 mg/kg/injection, schedule: Q04DX003 (ip), vehicle: saline
[3] = endpoint: mean survival time, dose: 12.5 mg/kg/injection, schedule: Q01DX009 (ip), vehicle: saline
[4] = endpoint: mean survival time, dose: 12.5 mg/kg/injection, schedule: Q04DX003 (ip), vehicle: saline
[5] = endpoint: mean survival time, dose: 25.0 mg/kg/injection, schedule: Q04DX003 (ip), vehicle: saline
[6] = endpoint: mean survival time, dose: 100.0 mg/kg/injection, schedule: Q01DX009 (ip), vehicle: saline with Tween-80
[7] = endpoint: mean survival time, dose: 200.0 mg/kg/injection, schedule: Q01DX009 (ip), vehicle: saline with Tween-80
[8] = endpoint: mean survival time, dose: 400.0 mg/kg/injection, schedule: Q01DX009 (ip), vehicle: saline with Tween-80
[9] = endpoint: mean survival time, dose: 100.0 mg/kg/injection, schedule: Q01DX009 (ip), vehicle: saline
[10] = endpoint: mean survival time, dose: 200.0 mg/kg/injection, schedule: Q01DX009 (ip), vehicle: saline
[11] = endpoint: mean survival time, dose: 400.0 mg/kg/injection, schedule: Q01DX009 (ip), vehicle: saline
[12] = endpoint: mean survival time, dose: 100.0 mg/kg/injection, schedule: Q04DX003 (ip), vehicle: saline with Tween-80
[13] = endpoint: mean survival time, dose: 200.0 mg/kg/injection, schedule: Q04DX003 (ip), vehicle: saline with Tween-80
[14] = endpoint: mean survival time, dose: 400.0 mg/kg/injection, schedule: Q04DX003 (ip), vehicle: saline with Tween-80
[15] = endpoint: mean survival time, dose: 100.0 mg/kg/injection, schedule: Q04DX003 (ip), vehicle: Klucel (hydroxypropylcellulose) (HPC)
[16] = endpoint: mean survival time, dose: 200.0 mg/kg/injection, schedule: Q04DX003 (ip), vehicle: Klucel (hydroxypropylcellulose) (HPC)
[17] = endpoint: mean survival time, dose: 400.0 mg/kg/injection, schedule: Q04DX003 (ip), vehicle: Klucel (hydroxypropylcellulose) (HPC)
[18] = endpoint: mean survival time, dose: 100.0 mg/kg/injection, schedule: Q01DX001 (ip), vehicle: Klucel (hydroxypropylcellulose) (HPC)
[19] = endpoint: mean survival time, dose: 200.0 mg/kg/injection, schedule: Q01DX001 (ip), vehicle: Klucel (hydroxypropylcellulose) (HPC)
[20] = endpoint: mean survival time, dose: 400.0 mg/kg/injection, schedule: Q01DX001 (ip), vehicle: Klucel (hydroxypropylcellulose) (HPC)
[21] = endpoint: mean survival time, dose: 100.0 mg/kg/injection, schedule: Q04DX002 (ip), vehicle: saline
[22] = endpoint: mean survival time, dose: 200.0 mg/kg/injection, schedule: Q04DX002 (ip), vehicle: saline
[23] = endpoint: mean survival time, dose: 400.0 mg/kg/injection, schedule: Q04DX002 (ip), vehicle: saline
[24] = endpoint: mean survival time, dose: 3.12 mg/kg/injection, schedule: Q01DX009 (ip), vehicle: saline

Measured: T/C

CCC(=O)NCC(=O)O
inactive: [1] 103 % of control | [2] 96 % of control | [3] 95 % of control | [4] 96 % of control | endpoint: mean survival time, dose: 25.0 mg/kg/injection, schedule: Q01DX009 (ip), vehicle: saline 92 % of control | [5] 100 % of control

COc1ccc(/C=N/N=C(\N)N[N+](=O)[O-])cc1OC
inactive: [6] 102 % of control | endpoint: mean survival time, dose: 100.0 mg/kg/injection, schedule: Q04DX003 (ip), vehicle: saline sonified 92 % of control | [7] 98 % of control | endpoint: mean survival time, dose: 200.0 mg/kg/injection, schedule: Q04DX003 (ip), vehicle: saline sonified 97 % of control | [8] 97 % of control | endpoint: mean survival time, dose: 400.0 mg/kg/injection, schedule: Q04DX003 (ip), vehicle: saline sonified 91 % of control

CN1C2CC(=O)CC1C1CCC2C1
inactive: endpoint: mean survival time, dose: 15.0 mg/kg/injection, schedule: Q01DX001 (ip), vehicle: carboxymethylcellulose (CMC) 103 % of control | endpoint: mean survival time, dose: 30.0 mg/kg/injection, schedule: Q01DX001 (ip), vehicle: carboxymethylcellulose (CMC) 101 % of control

CC(C)=CCC/C(C)=C\C1N(C)CCCN1C
inactive: endpoint: mean survival time, dose: 25.0 mg/kg/injection, schedule: Q01DX009 (ip), vehicle: saline with Tween-80 92 % of control | endpoint: mean survival time, dose: 25.0 mg/kg/injection, schedule: Q04DX003 (ip), vehicle: saline with Tween-80 98 % of control | endpoint: mean survival time, dose: 50.0 mg/kg/injection, schedule: Q01DX009 (ip), vehicle: saline with Tween-80 88 % of control | endpoint: mean survival time, dose: 50.0 mg/kg/injection, schedule: Q04DX003 (ip), vehicle: saline with Tween-80 92 % of control

N#C[C@H](OC1OC(COC2OC(CO)C(O)C(O)C2O)C(O)C(O)C1O)c1ccccc1 (stereo not given in full)
inactive: [9] 102 % of control | [10] 101 % of control | [11] 98 % of control | endpoint: median survival time, dose: 25.0 mg/kg/injection, schedule: Q01DX009 (ip), vehicle: water 101 % of control | endpoint: median survival time, dose: 25.0 mg/kg/injection, schedule: Q01DX Z (ip), vehicle: water 100 % of control | endpoint: median survival time, dose: 50.0 mg/kg/injection, schedule: Q01DX009 (ip), vehicle: water 92 % of control | endpoint: median survival time, dose: 50.0 mg/kg/injection, schedule: Q01DX Z (ip), vehicle: water 87 % of control | endpoint: median survival time, dose: 100.0 mg/kg/injection, schedule: Q01DX009 (ip), vehicle: water 51 % of control | endpoint: median survival time, dose: 200.0 mg/kg/injection, schedule: Q01DX009 (ip), vehicle: water 51 % of control | endpoint: median survival time, dose: 400.0 mg/kg/injection, schedule: Q01DX009 (ip), vehicle: water 93 % of control | endpoint: median survival time, dose: 400.0 mg/kg/injection, schedule: Q01DX Z (ip), vehicle: water 87 % of control

CC(C)(C)C(=O)CC(=O)C(C)(C)C.CC(C)(C)C(=O)CC(=O)C(C)(C)C.CC(C)(C)C(=O)CC(=O)C(C)(C)C.[Gd]
inactive: [12] 101 % of control | [13] 101 % of control | [14] 92 % of control

Cc1cc(N)c2cc(NC(=O)CCCCCCCC(=O)Nc3ccc4nc(C)cc(N)c4c3)ccc2n1
inactive: endpoint: mean survival time, dose: 20.0 mg/kg/injection, schedule: Q01DX Z (ip), vehicle: methylcellulose (MC) 93 % of control | endpoint: mean survival time, dose: 33.0 mg/kg/injection, schedule: Q01DX Z (ip), vehicle: methylcellulose (MC) 110 % of control | endpoint: mean survival time, dose: 50.0 mg/kg/injection, schedule: Q01DX Z (ip), vehicle: methylcellulose (MC) 112 % of control | endpoint: mean survival time, dose: 75.0 mg/kg/injection, schedule: Q01DX Z (ip), vehicle: methylcellulose (MC) 114 % of control

CCC(Cl)COP(=O)(OCC(Cl)CC)OC(CC)P(=O)(OCC(Cl)CC)OCC(Cl)CC (stereo not given)
inactive: [15] 93 % of control | [16] 93 % of control | [17] 95 % of control

CCOC(=O)C1CC2CC(C1=O)C2(C)C (stereo not given)
inactive: [12] 96 % of control | [13] 101 % of control | [14] 93 % of control

O=C(NCCCl)NC1c2cc(Cl)ccc2-c2c(Cl)cc(Cl)cc21 (stereo not given)
inactive: [18] 92 % of control | endpoint: mean survival time, dose: 100.0 mg/kg/injection, schedule: Q01DX009 (ip), vehicle: Klucel (hydroxypropylcellulose) (HPC) 87 % of control | [15] 94 % of control | [19] 96 % of control | endpoint: mean survival time, dose: 200.0 mg/kg/injection, schedule: Q01DX009 (ip), vehicle: Klucel (hydroxypropylcellulose) (HPC) 90 % of control | [16] 98 % of control | [20] 92 % of control | endpoint: mean survival time, dose: 400.0 mg/kg/injection, schedule: Q01DX009 (ip), vehicle: Klucel (hydroxypropylcellulose) (HPC) 95 % of control | [17] 98 % of control

O=C1NC(=S)S/C1=C\c1ccc(N(CCCl)CCCl)cc1
inactive: [12] 96 % of control | [13] 93 % of control | [14] 96 % of control

C/C(=N/O)c1ccc2c(c1)/C(=N/O)c1ccccc1-2
inactive: endpoint: mean survival time, dose: 100.0 mg/kg/injection, schedule: Q01DX001 (ip), vehicle: carboxymethylcellulose (CMC) 109 % of control | endpoint: mean survival time, dose: 200.0 mg/kg/injection, schedule: Q01DX001 (ip), vehicle: carboxymethylcellulose (CMC) 94 % of control | endpoint: mean survival time, dose: 400.0 mg/kg/injection, schedule: Q01DX001 (ip), vehicle: carboxymethylcellulose (CMC) 93 % of control

C=CCSC(=S)SCc1cccc(Cl)c1
inactive: [9] 101 % of control | [21] 100 % of control | [10] 101 % of control | [22] 100 % of control | [11] 99 % of control | [23] 97 % of control

CCCCCCCC(=O)N1CCCC(C)C1 (stereo not given)
inactive: [21] 96 % of control | [22] 114 % of control | [23] 114 % of control

CC1CC(C)CC(C)C(O)/C(C#N)=C/C=C/CC(C2CCCC2C(=O)O)OC(=O)CC(O)C(C)C1 (stereo not given)
inactive: endpoint: mean survival time, dose: 0.5 mg/kg/injection, schedule: Q01DX009 (ip), vehicle: saline with Tween-80 98 % of control | endpoint: mean survival time, dose: 1.0 mg/kg/injection, schedule: Q01DX009 (ip), vehicle: saline with Tween-80 104 % of control | endpoint: mean survival time, dose: 2.0 mg/kg/injection, schedule: Q01DX009 (ip), vehicle: saline with Tween-80 96 % of control

CCOC(=O)C1CC(C(=O)OCC)C(=O)C1=O (stereo not given)
inactive: [12] 100 % of control | [13] 99 % of control | [14] 86 % of control

c1ccc(-c2cc(-c3ccccc3)on2)cc1
inactive: [15] 100 % of control | [16] 98 % of control | [17] 102 % of control

CCOC(=O)Nc1cc(N(C)CC(O)CN(C)c2ccccc2)c([N+](=O)[O-])c(N)n1 (stereo not given)
inactive: [18] 101 % of control | [19] 104 % of control | [20] 97 % of control

FC(F)(F)c1ccc2c(c1)N(CCCN1CCN(CCN3CCOCC3)CC1)c1ccccc1S2
inactive: endpoint: mean survival time, dose: 0.78 mg/kg/injection, schedule: Q01DX009 (ip), vehicle: saline 100 % of control | endpoint: mean survival time, dose: 1.56 mg/kg/injection, schedule: Q01DX009 (ip), vehicle: saline 106 % of control | [24] 95 % of control | [4] 108 % of control | [5] 116 % of control

O=[N+]([O-])c1ccc(OCCC[P+](c2ccccc2)(c2ccccc2)c2ccccc2)c(Cl)c1
inactive: [24] 98 % of control | [1] 95 % of control | [2] 94 % of control | [3] 86 % of control and 87 % of control | [4] 92 % of control | [5] 90 % of control

CCCC(=O)CC(=O)C(F)(F)F.CCCC(=O)CC(=O)C(F)(F)F.CCCC(=O)CC(=O)C(F)(F)F.[Er]
inactive: endpoint: mean survival time, dose: 100.0 mg/kg/injection, schedule: Q01DX009 (ip), vehicle: other 104 % of control | endpoint: mean survival time, dose: 100.0 mg/kg/injection, schedule: Q04DX003 (ip), vehicle: other 110 % of control | endpoint: mean survival time, dose: 200.0 mg/kg/injection, schedule: Q01DX009 (ip), vehicle: other 106 % of control | endpoint: mean survival time, dose: 200.0 mg/kg/injection, schedule: Q04DX003 (ip), vehicle: other 107 % of control | endpoint: mean survival time, dose: 400.0 mg/kg/injection, schedule: Q04DX003 (ip), vehicle: other 108 % of control

O=Cc1[nH]c(=S)[nH]c(=O)c1Cc1cccc(Cl)c1
inactive: [6] 100 % of control | [12] 94 % of control | [7] 100 % of control | [13] 94 % of control | [8] 100 % of control | [14] 90 % of control
